US7901906B2, “Targeting of MKRN1 for identifying cancer treatment agents” (University of Central Florida Research Foundation, Inc., priority 2006, dated 2011)
Non-standard residues stand in square brackets, D forms with d. Residues, ends and D or L forms follow the SMILES beside them. *: point of attachment. Nle = CCCC[C@H](N)C(=O)O; Cbz = O=C(OCc1ccccc1)*

System: MKRN1
Assay: Levels of ectopically expressed MKRN1 by anti-V5 immunoblotting
Format: cell-based, human
Experimental: FIG. 3. MKRN1 interacts with hTERT. (A) Analysis of the physical interaction between hTERT and MKRN1 using the yeast two-hybrid assay. Five domains of hTERT were analyzed for binding to MKRN1. TRF1 bait was used as a negative control. Blue signal on the SG-HWU/X plate indicates activation of the reporter gene, LacZ. S, synthetic; G, galactose; H, histidine (−); W, tryptophan (−); U, uracil (−); X, X-gal. (B) Schematic diagram of MKRN1 domains. Amino acid sequences (SEQ ID NOS 3-5, respectively in order of appearance) surrounding the RING finger domain in MKRN1 and mutants used in this study. Cysteines and a histidine in the RING finger domain are shown in red. Mutated residue in MKRN1^H307E is shown in blue. (C) H1299 cells co-transfected with hTERT-HA and MKRN1-V5 were either untreated or treated for 2 hours with 10 μg/ml ALLnN. Anti-HA immunoprecipitates were analyzed by immunoblotting using an anti-V5 antibody probe. […] (D) H1299 cells co-transfected with Flag-hTERT and MKRN1-V5 were either untreated or treated for 2 hours with 10 μM MG132. Anti-Flag immunoprecipitates were analyzed by immunoblotting using an anti-V5 antibody probe. […] Flag-hTERT was visualized with an anti-Flag antibody probe.
FIG. 4. MKRN1 functions as an E3 ubiquitin-ligase for hTERT in vitro and in vivo. (A) HA-tagged hTERT (residues 946-1132) was incubated MKRN1 or mutants in the presence of E1, E2, His6-ubiquitin (6×His tag disclosed as SEQ ID NO: 7). Samples were resolved by 6% SDS-PAGE and analyzed by immunoblotting with an anti-HA antibody probe. (B) H1299 cells were co-transfected with Flag-hTERT, HA-ubiquitin, MKRN1-V5, and together with either MKRN1^H307E-V5 or MKRN1^Δ^C-V5 as specified. Cells were untreated or treated with 10 μM MG132 for 2 hours. Anti-Flag immunoprecipitates and cell lysates were analyzed by immunoblotting with anti-HA antibody and anti-V5 antibody probes, respectively. (C) H1299 cells co-transfected with Flag-hTERT and HA-ubiquitin, and together with or without MKRN1-V5 as indicated were treated with 10 μM MG132 for the indicated times. Anti-Flag immunoprecipitates and cell lysates were analyzed by immunoblotting with anti-HA antibody and anti-V5 antibody probes, respectively.
FIG. 5. Overexpression of MKRN1 decreases telomerase activity and telomere length. (A) HT1080 cells were stably transfected with MKRN1-V5 or an empty vector. The cells were untreated or treated for 2 hours with 10 μM MG132. Cell lysates were analyzed by immunoblotting with anti-V5 antibody probe. (B) Stable HT1080 cell lines (MKRN1 and vector) were harvested at 45 PD, and telomerase activities were measured with different amounts of proteins using the TRAP assay. The lane labeled LB corresponds to the negative control (lysis buffer only). ITAS represents the internal telomerase assay standard. (C) Cell lysates from stable HT1080 cell lines were analyzed by immunoprecipitation with anti-hTERT antibody followed by immunoblotting using same antibody probe. (D) Representative results of RT-PCR analysis for the expression of MKRN1, hTERT, and hTR in stable HT1080 cell lines. RT-PCR products from each sample were normalized to glyceraldehyde-3-phosphate dehydrogenase (GAPDH) signal. (E) Stable HT1080 cell lines were harvested at 45 PD, and genomic DNA was digested with RsaI and HinfI, followed by Southern blotting using a telomere repeat probe.
H1299 cells were transiently transfected with the expression vectors indicated in the figure legends using TransFast transfection reagent (Promega, Madison, Wis.) according to the manufacturer's instructions. Cells were lysed with buffer containing 0.5% NP-40, 50 mM Tris-HCl (pH 7.5), 150 mM NaCl, 2 mM phenyl methylsulphonyl fluoride. […]

SMILES	MKRN1 species in cell lysates (H1299 co-transfected with hTERT-HA and MKRN1-V5, 10 μg/ml ALLnN, 2 hours)	MKRN1 expression (H1299, MKRN1-V5, 10 μM MG132, 2 hours)	unmodified and polyubiquitinated MKRN1 species over time (H1299, MKRN1-V5, 10 μM MG132, indicated times)	amount of MKRN1^ΔC (H1299, MKRN1^ΔC-V5, 10 μM MG132, 2 hours)	MKRN1^H307E expression level, MG132 treatment versus absence (H1299 cotransfected with MKRN1 and MKRN1^H307E, 10 μM MG132)	MKRN1 level in stable HT1080 cells (HT1080 stably expressing MKRN1-V5, 10 μM MG132, 2 hours)
CCCC[C@@H](C=O)NC(=O)[C@H](CC(C)C)NC(=O)[C@H](CC(C)C)NC(C)=O [ALLnN] (Ac-Leu-Leu-[Nle]-aldehyde)	significant increase	–	–	–	–	–
CC(C)C[C@@H](C=O)NC(=O)[C@H](CC(C)C)NC(=O)[C@H](CC(C)C)NC(=O)OCc1ccccc1 [MG132] (Cbz-Leu-Leu-Leu-aldehyde)	–	clearly elevated	increased in a time-dependent manner	no effect	~2 fold	substantial increase
